Laboratory results: patent publication US20220194959A1, “CRYSTAL FORM OF EGFR INHIBITOR AND PREPARATION METHOD THEREOF” (MEDSHINE DISCOVERY INC., priority 2019, published 2022)

Legend:
Format in all cases: physicochemical
[1] = Solubility assay in media with different pHs; conditions: for solubility at 2 h / solubility at 24 h: 37 °C, thermodynamic from solid; for Solubility (2 hours) / Solubility (24 hours): 37° C.; for Final pH: filtrate of saturated solution
Procedure: (§1) 9 parts of 4 mg of the crystal form A of the compound of formula (II) were weighed and added to a 1.5 mL sample bottle, respectively, and then 1 mL of different media (0.1 mol/L HCl, 0.01 mol/L HCl, pH3.8 buffer solution, pH4.5 buffer solution, pH5.5 buffer solution, pH6.0 buffer solution, pH6.8 buffer solution, pH7.4 buffer solution, and water) were added, respectively. Based on the dissolution situation, the raw material compound was continuously added until a saturated solution was formed. The magnetic bar was added to the above suspension, and the suspension was placed on a magnetic stirrer (37° C., protected from light) and stirred. […] The upper layer of the sample was filtered with a filter membrane, and the pH value of the filtrate was determined. The saturated solubility of the compound was determined by HPLC.
as §1, with “C” for “A”

[2] = Stability assay under illumination, high humidity, high temperature and acceleration (related substances and crystal form); parameters: Total impurity: unit not given here; conditions: for Change of crystal form: 10 days
Procedure: The stability of crystal form of the crystal form A and the crystal form C of the compound of formula (II) under the conditions of illumination, high humidity (92.5% RH), high temperature (60° C.) and acceleration (40° C./75% RH) was investigated.
Illumination test chamber, model: SHH-100GD-2, conditions: 5000±500 lux (visible light) and 90 mw/cm^2 (ultraviolet).
Electrothermal blowing dry box, model: GZX-9140MBE, conditions: 60° C.
Constant temperature and humidity chamber, model: LDS-800Y, conditions: 40° C./75% RH.
Constant temperature and humidity chamber, model: SHH-250SD, conditions: 25° C., 92.5% RH.
An appropriate amount of the crystal form A of the compound of formula (II) was weighed and placed in a dry and clean weighing bottle. The sample was spread into a thin layer, and fully exposed to assay conditions (60° C., 92.5% RH, illumination) and acceleration conditions (40° C./75% RH). After 17 days, the compound was taken out and determined for related substances and crystal form. […]

[3] = Hygroscopicity study by dynamic vapor sorption (DVS)
Procedure: 1.4. Dynamic Vapor Sorption, DVS Method
Instrument model: SMS DVS Advantage dynamic vapor sorption apparatus
Test conditions: The sample (10 to 15 mg) is weighed and placed in a DVS sample pan for testing.
The detailed DVS parameters are as follows:
Equilibration: dm/dt=0.01%/min (The shortest time: 10 min, and the longest time: 180 min)
Drying: Dried for 120 min at 0% RH
RH (%) test gradient: 10%
Range of RH (%) test gradient: 0%-90%-0%
The classification of hygroscopicity evaluation is as follows:
10-15 mg of the crystal form A and the crystal form C of the compound of formula (II) were weighed and placed into a DVS sample pan for testing.

[4] = 0.1 mol/L HCl, pH 1, simulated gastric fluid
[5] = pH 6.8 buffer solution, pH 6.8, aqueous buffer
[6] = pH 7.4 buffer solution, pH 7.4, aqueous buffer

Work on `COc1cc2ncnc(Nc3cccc(Cl)c3F)c2cc1N1CC2(CN(C)C2)OC1=O.Cc1ccc(S(=O)(=O)O)cc1` yielded a solubility at 2 h ([1]; 0.01 mol/L HCl, pH 2, simulated gastric fluid) of 7440 µg/mL, a solubility at 2 h [1, 4] greater than 10000 µg/mL and a solubility at 24 h [1, 4] greater than 10000 µg/mL. For the same molecule, the solubility at 24 h ([1]; pH 5.5 buffer solution, pH 5.5, aqueous buffer) was 1300 µg/mL, the solubility at 2 h [1, 5] was 354 µg/mL and the solubility at 24 h [1, 5] was 73 µg/mL. It also gave a solubility at 2 h [1, 6] of 99 µg/mL, a solubility at 24 h [1, 6] of 22 µg/mL and a solubility at 24 h ([1]; water) of 1140 µg/mL.

For `COc1cc2ncnc(Nc3cccc(Cl)c3F)c2cc1N1CC2(CN(C)C2)OC1=O.Cc1ccc(S(=O)(=O)O)cc1` [crystal form C of the compound of formula (II)], the “Stability compared with the crystal form D of the maleate of the compound of formula (I)” value [2] was “better”, the “Related substance at relative retention time 0.24” value ([2]; 40° - 75% RH - 10 days) was 0.03 and the “Related substance at relative retention time 0.69” value ([2]; 40° - 75% RH - 10 days) was 0.06. The “Related substance at relative retention time 0.88” value ([2]; 40° - 75% RH - 10 days) was 0.04, the “Related substance at relative retention time 0.92” value ([2]; 40° - 75% RH - 10 days) was 0.02 and the “Related substance at relative retention time 1.24” value ([2]; 40° - 75% RH - 10 days) was 0.14. The “Related substance at relative retention time 1.30” value ([2]; 40° - 75% RH - 10 days) was 0.17, the “Related substance at relative retention time 1.81” value ([2]; 40° - 75% RH - 10 days) was 0.03 and the Total impurity ([2]; 40° - 75% RH - 10 days) was 0.53. The “Related substance at relative retention time 0.24” value ([2]; 60° - 10 days) was 0.02, the “Related substance at relative retention time 0.69” value ([2]; 60° - 10 days) was 0.26 and the “Related substance at relative retention time 0.88” value ([2]; 60° - 10 days) was 0.03. The “Related substance at relative retention time 1.24” value ([2]; 60° - 10 days) was 0.11, the “Related substance at relative retention time 1.30” value ([2]; 60° - 10 days) was 0.17 and the “Related substance at relative retention time 1.81” value ([2]; 60° - 10 days) was 0.05. The “Related substance at relative retention time 1.89” value ([2]; 60° - 10 days) was 0.05, the Total impurity ([2]; 60° - 10 days) was 0.69 and the “Related substance at relative retention time 0.24” value ([2]; 92.5% RH - 10 days) was 0.02. The “Related substance at relative retention time 0.69” value ([2]; 92.5% RH - 10 days) was 0.04, the “Related substance at relative retention time 0.88” value ([2]; 92.5% RH - 10 days) was 0.02 and the “Related substance at relative retention time 1.24” value ([2]; 92.5% RH - 10 days) was 0.12. The “Related substance at relative retention time 1.30” value ([2]; 92.5% RH - 10 days) was 0.17, the Total impurity ([2]; 92.5% RH - 10 days) was 0.37 and the “Related substance at relative retention time 0.24” value ([2]; Illumination - 10 days) was 0.02. The “Related substance at relative retention time 0.69” value ([2]; Illumination - 10 days) was 0.04, the “Related substance at relative retention time 0.81” value ([2]; Illumination - 10 days) was 0.04 and the “Related substance at relative retention time 0.92” value ([2]; Illumination - 10 days) was 0.05. For the same molecule, the “Related substance at relative retention time 1.15” value ([2]; Illumination - 10 days) was 0.02, the “Related substance at relative retention time 1.17” value ([2]; Illumination - 10 days) was 0.03 and the “Related substance at relative retention time 1.24” value ([2]; Illumination - 10 days) was 0.11. The “Related substance at relative retention time 1.30” value ([2]; Illumination - 10 days) was 0.17, the Total impurity ([2]; Illumination - 10 days) was 0.40 and the “Related substance at relative retention time 0.24” value ([2]; Initial sample) was 0.02. For the same molecule, the “Related substance at relative retention time 0.69” value ([2]; Initial sample) was 0.04, the “Related substance at relative retention time 0.88” value ([2]; Initial sample) was 0.02 and the “Related substance at relative retention time 0.92” value ([2]; Initial sample) was 0.02. The “Related substance at relative retention time 1.24” value ([2]; Initial sample) was 0.12, the “Related substance at relative retention time 1.30” value ([2]; Initial sample) was 0.17 and the Total impurity ([2]; Initial sample) was 0.42. The “Change of crystal form” value ([2]; acceleration (40° C./75% RH)) was “not changed”, the “Change of crystal form” value ([2]; high humidity (92.5% RH)) was “not changed” and the “Change of crystal form” value ([2]; high temperature (60° C.)) was “not changed”. For the same molecule, the “Change of crystal form” value ([2]; illumination) was “not changed”, the “Formation of degradation impurity (conclusion)” value ([2]; illumination, high temperature, high humidity, acceleration) was “produces a degradation impurity only under the condition of high temperature” and the “ΔW (weight increase by moisture absorption)” value ([3]; 25° C. and 80% RH) was 3.697%. The Classification of hygroscopicity ([3]; 25° C., 80% RH) was “hygroscopic”, the “Solubility (2 hours)” value ([1]; 0.01 mol/L HCl) was 5666 µg/mL and the “Solubility (24 hours)” value ([1]; 0.01 mol/L HCl) was 2863 µg/mL. The “Solubility (2 hours)” value ([1]; 0.1 mol/L HCl) was greater than 10000 µg/mL, the “Solubility (24 hours)” value ([1]; 0.1 mol/L HCl) was greater than 10000 µg/mL and the “Solubility (conclusion)” value ([1]; buffer solutions below pH 6.8 and purified water) was “high solubility”. The “Final pH” value ([1]; 0.01 mol/L HCl) was 2.863, the “Final pH” value ([1]; pH 3.8 buffer solution) was 3.928 and the “Final pH” value ([1]; pH 4.5 buffer solution) was 4.560. The “Final pH” value ([1]; pH 5.5 buffer solution) was 5.528, the “Final pH” value ([1]; pH 6.0 buffer solution) was 5.708 and the “Final pH” value ([1]; pH 6.8 buffer solution) was 6.625. For the same molecule, the “Final pH” value ([1]; pH 7.4 buffer solution) was 7.142, the “Final pH” value ([1]; water) was 5.444 and the “Evaluation of dissolution property” value ([1]; merged cell: 0.1 mol/L HCl, 0.01 mol/L HCl, pH 3.8, 4.5, 5.5, 6.0 buffer solutions and water) was “High solubility”. The “Evaluation of dissolution property” value ([1]; merged cell: pH 6.8 and pH 7.4 buffer solutions) was “Low solubility”, the “Solubility (2 hours)” value ([1]; pH 3.8 buffer solution) was 1612 µg/mL and the “Solubility (24 hours)” value ([1]; pH 3.8 buffer solution) was 1681 µg/mL. The “Solubility (2 hours)” value ([1]; pH 4.5 buffer solution) was 1167 µg/mL, the “Solubility (24 hours)” value ([1]; pH 4.5 buffer solution) was 1186 µg/mL and the “Solubility (2 hours)” value ([1]; pH 5.5 buffer solution) was 916 µg/mL. For the same molecule, the “Solubility (24 hours)” value ([1]; pH 5.5 buffer solution) was 863 µg/mL, the “Solubility (2 hours)” value ([1]; pH 6.0 buffer solution) was 699 µg/mL and the “Solubility (24 hours)” value ([1]; pH 6.0 buffer solution) was 328 µg/mL. The “Solubility (2 hours)” value ([1]; pH 6.8 buffer solution) was 260 µg/mL, the “Solubility (24 hours)” value ([1]; pH 6.8 buffer solution) was 71 µg/mL and the “Solubility (2 hours)” value ([1]; pH 7.4 buffer solution) was 81 µg/mL. The “Solubility (24 hours)” value ([1]; pH 7.4 buffer solution) was 40 µg/mL, the “Solubility (2 hours)” value ([1]; water) was 720 µg/mL and the “Solubility (24 hours)” value ([1]; water) was 646 µg/mL.
